Our source for the IC50 values is ChEMBL document CHEMBL3808311, “Inhibitors of Renal Outer Medullary Potassium Channel” (ACS Med Chem Lett, 2016).

Molecules are shown by their SMILES.

The assay deals with T1, ATP-sensitive inward rectifier potassium channel 1 (Homo sapiens, UniProt P48048).
T1 sequence (P48048 whole entry): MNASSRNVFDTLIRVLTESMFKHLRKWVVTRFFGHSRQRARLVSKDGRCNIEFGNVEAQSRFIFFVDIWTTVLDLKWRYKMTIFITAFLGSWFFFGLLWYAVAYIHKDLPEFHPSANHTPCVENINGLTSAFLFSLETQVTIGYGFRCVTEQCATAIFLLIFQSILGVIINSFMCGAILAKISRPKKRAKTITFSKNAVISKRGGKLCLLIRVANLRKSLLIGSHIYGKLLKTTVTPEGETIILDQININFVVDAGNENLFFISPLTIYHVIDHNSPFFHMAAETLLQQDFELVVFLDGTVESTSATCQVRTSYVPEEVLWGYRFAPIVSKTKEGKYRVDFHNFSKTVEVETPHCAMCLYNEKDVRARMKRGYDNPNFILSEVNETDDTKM
Put plainly: Inhibition of human Kir1.1 expressed in HEK293 cells after 30 mins by thallium flux assay. It is filed as cell-based.
For `CC1=C(N2CCC3(CCN(C[C@H](O)c4ccc5c(c4)-c4nnnn4C5)CC3)C2=O)COC1=O`, the midpoint of inhibition, the IC50, lay at 11 nM.
Turning to `CC1=C(N2CCC3(CCN(C[C@@H](O)c4cc5c(cc4Cl)Cn4nnnc4-5)CC3)C2=O)COC1=O`, the IC50 (commonly the concentration that gives 50% inhibition) came out at 9 nM.
Take `C[C@@H]1CC2(CCN(C[C@@H](O)c3ccc4c(c3)-c3nnnn3C4)CC2)C(=O)N1C1=CC(=O)OC1`: it took 7 nM to reach half-maximal inhibition (IC50).
As for `CC1=C(N2CCC3(CCN(C[C@H](O)c4cc5c(cc4C)Cn4nnnc4-5)CC3)C2=O)COC1=O`, the figure is 17 nM.
For the molecule `C[C@H]1CC2(CCN(C[C@@H](O)c3ccc4c(c3)-c3nnnn3C4)CC2)C(=O)N1C1=CC(=O)OC1`, half-maximal inhibition (IC50) required 14 nM.
Then `C[C@@H]1CC2(CCN(C[C@H](O)c3ccc4c(c3)-c3nnnn3C4)CC2)C(=O)N1C1=CC(=O)OC1`, with 32 nM.
`CC1=C(N2CCC3(CCN(C[C@H](O)c4ccc5c(c4)-c4nnnn4C5)C[C@H]3F)C2=O)COC1=O` (stereo partly specified) displayed an IC50 of 43 nM.
The molecule `CC1=C(N2CCC3(CCN(C[C@H](O)c4cc5c(cc4Cl)Cn4nnnc4-5)CC3)C2=O)COC1=O` had an IC50 of 31 nM.
Take `CC1=C(N2CCC3(CCN(C[C@H](O)c4ccc5c(c4)-c4nnnn4C5)C[C@@H]3F)C2=O)COC1=O` (stereo partly specified): the IC50 is 35 nM.
Molecule `C[C@H]1CC2(CCN(C[C@H](O)c3ccc4c(c3)-c3nnnn3C4)CC2)C(=O)N1C1=CC(=O)OC1` had an IC50 of 20 nM.
`CC1=C(N2CCC3(CCN(C[C@@H](O)c4ccc5c(c4)-c4nnnn4C5)CC3)C2=O)COC1=O` displayed an IC50 of 19 nM.
